In brackets after ≈: the same amount, converted by molar mass. Non-standard residues stand in square brackets, D forms with d. Residues, ends and D or L forms follow the SMILES beside them. Orn = NCCC[C@H](N)C(=O)O
Columns and labels:
Klebsiella pneumoniae [1] = test: Antibacterial activity against multidrug-resistant Klebsiella pneumoniae clinical isolate OXA-48 incubated for 16 to 20 hrs in 12.5 % muller hinton medium by broth microdilution method; format: functional; settings: time 16-20 hrs
Staphylococcus aureus [2] = test: Antimicrobial activity against methicillin-resistant Staphylococcus aureus COL incubated for 16 to 20 hrs in 12.5 % muller hinton medium by broth microdilution method; format: functional; settings: time 16-20 hrs
Pseudomonas aeruginosa [3] = test: Antibacterial activity against multidrug-resistant Pseudomonas aeruginosa PA14 4.13 harboring phoQ mutant incubated for 16 to 20 hrs in 12.5 % muller hinton medium by broth microdilution method; format: functional; settings: time 16-20 hrs
Pseudomonas aeruginosa [4] = test: Antimicrobial activity against Pseudomonas aeruginosa PAO1 incubated for 16 to 20 hrs in 12.5 % muller hinton medium by broth microdilution method; format: functional; settings: time 16-20 hrs
Pseudomonas aeruginosa [5] = test: Antibacterial activity against multidrug-resistant Pseudomonas aeruginosa PA14 4.18 harboring pmrB mutant incubated for 16 to 20 hrs in 12.5 % muller hinton medium by broth microdilution method; format: functional; settings: time 16-20 hrs
Pseudomonas aeruginosa [6] = test: Antimicrobial activity against Pseudomonas aeruginosa PAO1 incubated for 16 to 20 hrs in full muller hinton medium by broth microdilution method; format: functional; settings: time 16-20 hrs
Pseudomonas aeruginosa [7] = test: Antibacterial activity against multidrug-resistant Pseudomonas aeruginosa PA14 incubated for 16 to 20 hrs in 12.5 % muller hinton medium by broth microdilution method; format: functional; settings: time 16-20 hrs
[8] = Hemolytic activity in human RBC incubated for 4 hrs; format: toxicity, cell-based; settings: erythrocyte
Escherichia coli [9] = test: Antimicrobial activity against Escherichia coli W3110 incubated for 16 to 20 hrs in 12.5 % muller hinton medium by broth microdilution method; format: functional; settings: time 16-20 hrs
Staphylococcus aureus [10] = test: Antimicrobial activity against methicillin-resistant Staphylococcus aureus COL incubated for 16 to 20 hrs in full muller hinton medium by broth microdilution method; format: functional; settings: time 16-20 hrs
Acinetobacter baumannii [11] = test: Antimicrobial activity against Acinetobacter baumannii ATCC 19606 incubated for 16 to 20 hrs in 12.5 % muller hinton medium by broth microdilution method; format: functional; settings: time 16-20 hrs
Enterobacter cloacae [12] = test: Antibacterial activity against multidrug-resistant Enterobacter cloacae incubated for 16 to 20 hrs in 12.5 % muller hinton medium by broth microdilution method; format: functional; settings: time 16-20 hrs
Pseudomonas aeruginosa [13] = test: Antibacterial activity against multidrug-resistant Pseudomonas aeruginosa clinical isolate ZEM9A incubated for 16 to 20 hrs in 12.5 % muller hinton medium by broth microdilution method; format: functional; settings: time 16-20 hrs
Klebsiella pneumoniae [14] = test: Antimicrobial activity against Klebsiella pneumoniae NCTC 418 incubated for 16 to 20 hrs in full muller hinton medium by broth microdilution method; format: functional; settings: time 16-20 hrs
Pseudomonas aeruginosa [15] = test: Antibacterial activity against multidrug-resistant Pseudomonas aeruginosa PA14 2P4 harboring pmrB mutant incubated for 16 to 20 hrs in 12.5 % muller hinton medium by broth microdilution method; format: functional; settings: time 16-20 hrs
Pseudomonas aeruginosa [16] = test: Antibacterial activity against multidrug-resistant Pseudomonas aeruginosa PA14 4.13 harboring phoQ mutant incubated for 16 to 20 hrs in full muller hinton medium by broth microdilution method; format: functional; settings: time 16-20 hrs
Pseudomonas aeruginosa [17] = test: Antibacterial activity against multidrug-resistant Pseudomonas aeruginosa PA14 4.18 harboring pmrB mutant incubated for 16 to 20 hrs in full muller hinton medium by broth microdilution method; format: functional; settings: time 16-20 hrs
Pseudomonas aeruginosa [18] = test: Antibacterial activity against multidrug-resistant Pseudomonas aeruginosa PA14 incubated for 16 to 20 hrs in full muller hinton medium by broth microdilution method; format: functional; settings: time 16-20 hrs
Pseudomonas aeruginosa [19] = test: Antibacterial activity against multidrug-resistant Pseudomonas aeruginosa PA14 2P4 harboring pmrB mutant incubated for 16 to 20 hrs in full muller hinton medium by broth microdilution method; format: functional; settings: time 16-20 hrs
Klebsiella pneumoniae [20] = test: Antibacterial activity against multidrug-resistant Klebsiella pneumoniae clinical isolate OXA-48 incubated for 16 to 20 hrs in full muller hinton medium by broth microdilution method; format: functional; settings: time 16-20 hrs
Pseudomonas aeruginosa [21] = test: Antibacterial activity against multidrug-resistant Pseudomonas aeruginosa clinical isolate ZEM-1A incubated for 16 to 20 hrs in full muller hinton medium by broth microdilution method; format: functional; settings: time 16-20 hrs
Pseudomonas aeruginosa [22] = test: Antibacterial activity against multidrug-resistant Pseudomonas aeruginosa clinical isolate ZEM9A incubated for 16 to 20 hrs in full muller hinton medium by broth microdilution method; format: functional; settings: time 16-20 hrs
Enterobacter cloacae [23] = test: Antibacterial activity against multidrug-resistant Enterobacter cloacae incubated for 16 to 20 hrs in full muller hinton medium by broth microdilution method; format: functional; settings: time 16-20 hrs
Escherichia coli [24] = test: Antimicrobial activity against Escherichia coli W3110 incubated for 16 to 20 hrs in full muller hinton medium by broth microdilution method; format: functional; settings: time 16-20 hrs
Acinetobacter baumannii [25] = test: Antimicrobial activity against Acinetobacter baumannii ATCC 19606 incubated for 16 to 20 hrs in full muller hinton medium by broth microdilution method; format: functional; settings: time 16-20 hrs
Pseudomonas aeruginosa [26] = test: Antibacterial activity against multidrug-resistant Pseudomonas aeruginosa clinical isolate ZEM-1A incubated for 16 to 20 hrs in 12.5 % muller hinton medium by broth microdilution method; format: functional; settings: time 16-20 hrs
Klebsiella pneumoniae [27] = test: Antimicrobial activity against Klebsiella pneumoniae NCTC 418 incubated for 16 to 20 hrs in 12.5 % muller hinton medium by broth microdilution method; format: functional; settings: time 16-20 hrs

Question: What does the source list for `CC[C@H](C)[C@H](NC(=O)[C@H](CCCN)NC(=O)[C@H](CCCNC(=N)N)NC(=O)[C@@H]1CCCN1C(=O)[C@@H]1CCCN1C(=O)[C@H](CCCNC(=N)N)NC(=O)[C@@H]1CCCN1C(=O)[C@H](CCCNC(=N)N)NC(=O)[C@@H]1CCCN1C(=O)[C@H](CC(C)C)NC(=O)[C@H](Cc1ccc(O)cc1)NC(=O)[C@@H]1CCCN1C(=O)[C@@H]1CCCN1C(=O)[C@H](CCCCN)NC(=O)[C@H](CC(=O)O)NC(=O)[C@@H](N)C(C)C)C(=O)N[C@@H](Cc1ccc(O)cc1)C(=O)N[C@@H](CC(N)=O)C(=O)N[C@@H](CCCN)C(N)=O` (H-VDKPPYLPRPRPPR[Orn]IYN[Orn]-NH2)?
Answer: MIC (Klebsiella pneumoniae [1]): 2 µg/mL (≈ 0.867 µM); MIC (Staphylococcus aureus [2]): > 64 µg/mL; MIC (Pseudomonas aeruginosa [3]): 32 µg/mL (≈ 13.9 µM); MIC (Pseudomonas aeruginosa [4]): 16 µg/mL (≈ 6.94 µM); MIC (Pseudomonas aeruginosa [5]): 32 µg/mL (≈ 13.9 µM); MIC (Pseudomonas aeruginosa [6]): > 64 µg/mL; MIC (Pseudomonas aeruginosa [7]): 32 µg/mL (≈ 13.9 µM); MHC [8]: > 1000 µg/mL; MIC (Escherichia coli [9]): 2 µg/mL (≈ 0.867 µM); MIC (Staphylococcus aureus [10]): > 64 µg/mL; MIC (Acinetobacter baumannii [11]): 8 µg/mL (≈ 3.47 µM); MIC (Enterobacter cloacae [12]): 1 µg/mL (≈ 0.434 µM); MIC (Pseudomonas aeruginosa [13]): 32 µg/mL (≈ 13.9 µM); MIC (Klebsiella pneumoniae [14]): 8 µg/mL (≈ 3.47 µM); MIC (Pseudomonas aeruginosa [15]): 16 µg/mL (≈ 6.94 µM); MIC (Pseudomonas aeruginosa [16]): > 32 µg/mL; MIC (Pseudomonas aeruginosa [17]): > 32 µg/mL; MIC (Pseudomonas aeruginosa [18]): > 32 µg/mL; MIC (Pseudomonas aeruginosa [19]): > 64 µg/mL; MIC (Klebsiella pneumoniae [20]): 64 µg/mL (≈ 27.8 µM); MIC (Pseudomonas aeruginosa [21]): > 64 µg/mL; MIC (Pseudomonas aeruginosa [22]): > 64 µg/mL; MIC (Enterobacter cloacae [23]): 32 µg/mL (≈ 13.9 µM); MIC (Escherichia coli [24]): 8 µg/mL (≈ 3.47 µM); MIC (Acinetobacter baumannii [25]): 64 µg/mL (≈ 27.8 µM); MIC (Pseudomonas aeruginosa [26]): 16 µg/mL (≈ 6.94 µM); MIC (Klebsiella pneumoniae [27]): 4 µg/mL (≈ 1.73 µM)

From ChEMBL document CHEMBL6083262, “Stereorandomized Oncocins with Preserved Ribosome Binding and Antibacterial Activity” (J Med Chem, 2024)
